# Measured values as given in ChEMBL document CHEMBL1133422, “The S-alkyl chain length as a determinant of the anti-leukemic activity of cysteine chloromethyl ketone compounds” (Bioorg Med Chem Lett, 2000).
# Legend:
# MOLT-3 = assay: Anti-leukemic activity against Molt-3 (T-lineage ALL, human acute lymphoblastic leukemia) cell line.; format: functional, cell-based
# NALM-6 = assay: Anti-leukemic activity against Nalm-6 (B-lineage ALL, human acute lymphoblastic leukemia) cell line.; format: functional, cell-based
IC50 (MOLT-3) [µM],IC50 (NALM-6) [µM],SMILES
2.5,4.8,CCCCCCCSC[C@H](NC(C)=O)C(=O)CCl
> 100,> 100,CCCCCCCCCCCCCCCCCCCCCCSC[C@H](NC(C)=O)C(=O)CCl
5.4,5.8,CCCCCSC[C@H](NC(C)=O)C(=O)CCl
5.6,41.4,CCCCSC[C@H](NC(C)=O)C(=O)CCl
8,6.9,CCCSC[C@H](NC(C)=O)C(=O)CCl
0.7,3.3,CCCCCCSC[C@H](NC(C)=O)C(=O)CCl
8.8,8.7,CCCCCCCCCCCCCCSC[C@H](NC(C)=O)C(=O)CCl
8.6,8.9,CCCCCCCCCCCCCCCSC[C@H](NC(C)=O)C(=O)CCl
> 100,> 100,CCCCCCCCCCCCCCCCCCCCSC[C@H](NC(C)=O)C(=O)CCl
3.4,4.7,CCCCCCCCCCSC[C@H](NC(C)=O)C(=O)CCl
> 100,> 100,CCCCCCCCCCCCCSC[C@H](NC(C)=O)C(=O)CCl
3,1.7,CCCCCCCCCCCSC[C@H](NC(C)=O)C(=O)CCl
> 100,> 100,CCCCCCCCCCCCCCCCCCSC[C@H](NC(C)=O)C(=O)CCl
4.1,5.6,CCCCCCCCSC[C@H](NC(C)=O)C(=O)CCl
6.7,7.3,CCCCCCCCCSC[C@H](NC(C)=O)C(=O)CCl
17.3,16,CCCCCCCCCCCCCCCCSC[C@H](NC(C)=O)C(=O)CCl
99.9,52.8,CCSC[C@H](NC(C)=O)C(=O)CCl

SMILES,IC50 (MOLT-3) [µM],IC50 (NALM-6) [µM]
CSC[C@H](NC(C)=O)C(=O)CCl,80.8,30.3
